In BindingDB's records for doi:10.1021/acs.jmedchem.5b00984 (Astrazeneca, 2015):

Each compound was assayed against T1, Progesterone receptor (Homo sapiens, UniProt P06401) (assay: Antagonist activity at progesterone receptor in human MCF cells assessed as estradiol-induced receptor response).
T1 sequence (P06401 whole entry): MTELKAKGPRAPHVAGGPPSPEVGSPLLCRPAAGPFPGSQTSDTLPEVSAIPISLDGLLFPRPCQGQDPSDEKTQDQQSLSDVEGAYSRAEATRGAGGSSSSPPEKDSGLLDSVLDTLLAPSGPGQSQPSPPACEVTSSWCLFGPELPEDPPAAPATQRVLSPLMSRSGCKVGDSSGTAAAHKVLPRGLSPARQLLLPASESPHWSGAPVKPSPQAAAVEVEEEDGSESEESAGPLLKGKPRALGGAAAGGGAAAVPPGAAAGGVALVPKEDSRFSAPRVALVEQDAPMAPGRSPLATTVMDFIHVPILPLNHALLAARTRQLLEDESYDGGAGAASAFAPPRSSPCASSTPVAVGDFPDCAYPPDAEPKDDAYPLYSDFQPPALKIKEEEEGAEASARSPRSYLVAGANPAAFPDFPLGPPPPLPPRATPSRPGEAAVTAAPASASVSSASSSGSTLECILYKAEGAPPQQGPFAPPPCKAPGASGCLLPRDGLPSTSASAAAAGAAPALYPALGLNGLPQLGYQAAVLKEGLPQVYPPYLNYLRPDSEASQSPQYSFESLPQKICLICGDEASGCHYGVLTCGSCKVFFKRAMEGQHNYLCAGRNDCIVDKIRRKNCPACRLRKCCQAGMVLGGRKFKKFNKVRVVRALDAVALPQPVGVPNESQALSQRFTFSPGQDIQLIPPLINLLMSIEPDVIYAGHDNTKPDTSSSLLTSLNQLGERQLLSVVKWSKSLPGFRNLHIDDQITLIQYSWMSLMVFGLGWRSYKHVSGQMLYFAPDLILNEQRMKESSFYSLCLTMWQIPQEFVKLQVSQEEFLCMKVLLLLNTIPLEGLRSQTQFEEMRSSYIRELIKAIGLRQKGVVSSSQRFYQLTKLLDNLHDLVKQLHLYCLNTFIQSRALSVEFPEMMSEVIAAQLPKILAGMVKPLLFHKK

Compound | IC50
C[C@@H]1Cc2c([nH]c3ccccc23)[C@@H](c2ccc(/C=C/C(=O)O)cc2)N1CC(C)(C)F | 3.5 nM
C[C@@H](CO)CN1[C@H](c2ccc(/C=C/C(=O)O)cc2)c2[nH]c3ccccc3c2C[C@H]1C | 50 nM
C[C@@H]1Cc2c([nH]c3ccccc23)[C@@H](c2ccc(/C=C/C(=O)O)cc2)N1CCO | 2290 nM
C[C@@H]1Cc2c([nH]c3ccccc23)[C@@H](c2ccc(Cl)cc2)N1CCC(=O)O | 1510 nM
OCCN1CCc2c([nH]c3ccccc23)C1c1ccc(Cl)cc1 (centres undefined) | 2690 nM
C[C@]12CC[C@@H]3c4ccc(O)cc4C[C@@H](CCCCCCCCC[S+]([O-])CCCC(F)(F)C(F)(F)F)[C@H]3[C@@H]1CC[C@@H]2O (some centres undefined) | 0.209 nM
CC/C(=C(\c1ccccc1)c1ccc(/C=C/C(=O)O)cc1)c1ccccc1 [(E)-3-[4-((Z)-1,2-Diphenyl-but-1-enyl)-phenyl]-acrylic acid] | 3980 nM
CC/C(=C(\c1ccc(O)cc1)c1ccc(/C=C/C(=O)O)cc1)c1ccccc1 [GW7604] | 12 nM
CC/C(=C(\c1ccc(O)cc1)c1ccc(OCCN(C)C)cc1)c1ccccc1 [[3H]4-OHT] | 0.794 nM

Continued, values first:

IC50 | Compound
0.832 nM | CC(C)CN1[C@H](c2c(F)cc(/C=C/C(=O)O)cc2F)c2[nH]c3ccccc3c2C[C@H]1C
3.6 nM | CC(C)CN1[C@H](c2ccc(/C=C/C(=O)O)cc2)c2[nH]c3ccccc3c2C[C@H]1C
2090 nM | C[C@@H]1Cc2c([nH]c3ccccc23)[C@@H](c2ccc(Cl)cc2)N1C[C@H](C)C(=O)O
912 nM | C[C@@H]1Cc2c([nH]c3ccc(O)cc23)[C@@H](c2ccc(Cl)cc2)N1CCO
724 nM | C[C@@H]1Cc2c([nH]c3ccccc23)[C@@H](c2ccc(Cl)cc2)N1CCO
